Results as given in US8691980B2 (National Taipei University of Technology, priority 2011, dated 2014).

Assays:
[1] = target: T1, Salicylate hydroxylase (SHL) (Pseudomonas putida, UniProt P23262); test: Fluorescence profile of the latent fluorophore in the presence of SHL and NADH, aerobic; assay type: biochemical
T1 construct: purchased GDS Technology Inc. (USA)
T1 sequence (P23262 1-434): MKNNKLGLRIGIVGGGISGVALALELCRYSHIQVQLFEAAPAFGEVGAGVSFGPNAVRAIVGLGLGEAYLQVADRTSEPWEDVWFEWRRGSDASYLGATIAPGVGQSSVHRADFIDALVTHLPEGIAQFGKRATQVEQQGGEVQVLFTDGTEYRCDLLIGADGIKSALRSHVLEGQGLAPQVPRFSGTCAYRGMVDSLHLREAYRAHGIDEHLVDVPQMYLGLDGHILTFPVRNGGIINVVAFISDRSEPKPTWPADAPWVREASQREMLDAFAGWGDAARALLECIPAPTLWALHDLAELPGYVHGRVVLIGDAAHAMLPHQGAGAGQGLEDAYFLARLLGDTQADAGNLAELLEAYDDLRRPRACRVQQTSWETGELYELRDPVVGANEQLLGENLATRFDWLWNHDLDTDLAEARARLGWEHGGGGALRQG
Protocol: (§1) ^1H NMR and ^13C NMR spectrums were obtained by Bruker AMX-500 spectrophotometer wherein chemical shift values were expressed in ppm relative to tetramethylsilane (δ unit); fluorescence intensity was measured by using a fluorescence-grade quartz cuvette and a spectrofluorometer, i.e. Horiba Jobin Yvon Fluoromax-4. The other chemicals are purchased from Acros, Aldrich, TCI or Sigma Chemical corporations and directly used without purification. […] Chem. Soc. Jp. 1985, 58, 731; the entire contents thereof are incorporated herein by reference. SHL is obtained from GDS Technology Inc. (USA). D-3-hydroxybutyric acid dehydrogenase is purchased from TOYOBO (Product Code: HBD-301). Cholesterol dehydrogenase is purchased from Genzyme Corp. All measurements were performed in 50 mM Tris-HCl (TRIZMA Base, Tris, pH8). The latent fluorophore is synthesized in DMSO and should be added to a Tris-HCl buffer before use to make the concentration of DMSO not exceed 0.1% (v/v).
(§2) The fluorescence profile of Compound C was analyzed in the presence of SHL and NADH in an aerobic environment. […] However, in case that Compound C was kept in a solution containing both 1 unit of SHL and 1 mM NADH at 37 °C, the fluorescence intensity of Compound B increases 57 times in 90 minutes, as shown in FIG. 1 (dotted line representing the baseline).

[2] = Latent fluorophore kept in SHL alone, NADH alone or Tris-HCl buffer (background fluorescence / stability); assay type: physicochemical; conditions: 20 μM
Protocol: as §1, §2

[3] = test system: SHL and 3-hydroxybutyric acid dehydrogenase; test: Two-enzyme system: SHL and 3-hydroxybutyric acid dehydrogenase; assay type: biochemical; conditions: Compound C 10 μM; substrate 3-hydroxybutyric acid
Protocol: as §1, with “(v/v). […]” for “(v/v).”
(§3) The measurement of fluorescence was performed at an excitation wavelength λex of 500 nm and an emission wavelength λem of 595 nm. […] The measured fluorescence intensity after subtraction of baseline (concentration of the biochemical molecule to be tested is zero) intensity therefrom was plotted versus the concentration of the biochemical molecule to be tested.

[4] = test system: SHL and cholesterol dehydrogenase; test: Two-enzyme system: SHL and cholesterol dehydrogenase; assay type: biochemical; conditions: Compound C 10 μM
Protocol: as §1, with “(v/v). […]” for “(v/v).”
as §3

[5] = target: T1, Salicylate hydroxylase (SHL); test: Effect of salicylic acid on the fluorescence intensity (SHL, Compound C, NADH); assay type: biochemical; conditions: salicylic acid added to SHL, Compound C and NADH, aerobic; fluorescence decreased with increasing concentration
Protocol: as §1

[6] = cited from earlier work

Row | Structure (SMILES) | time until fluorescence could be detected ([1]; 1 unit SHL and 1 mM NADH added to Tris-HCl buffer containing Compound C) | increase of fluorescence intensity ([1]; Compound C in solution with 1 unit SHL and 1 mM NADH, 37 °C, in 90 minutes) [times] | fluorescence intensity, only SHL added ([1]; only SHL added to Tris-HCl buffer containing Compound C, after 10 minutes) | fluorescence intensity, kept in solution of NADH alone ([2]; kept even for several months) | fluorescence intensity, kept in solution of SHL alone ([2]; kept even for several months) | fluorescence intensity, kept in Tris-HCl buffer solution ([2]; pH 8, kept even for several months) | fluorescence intensity after addition of the substrate [3] | fluorescence intensity after addition of the substrate [4] | conversion of Compound C to a fluorogenic compound [5] | blood level that may be fatal [6]
1 | N#Cc1c(-c2nc3ccccc3s2)c(=O)oc2cc(OCc3ccc(C(=O)O)c(O)c3)ccc12 [Compound C] | within several seconds | 57 | near the baseline | near the baseline | near the baseline | near the baseline | significantly increased | significantly increased | – | –
2 | O=C(O)c1ccccc1O [salicylic acid] | – | – | – | – | – | – | – | – | inhibited | above 4.3 mM
